{
  "source": "patent US9949979B2",
  "about": "“Use of inhibitors of the activity or function of PI3K” (NOVARTIS AG, priority 2011, dated 2018)",
  "target": "PI3K delta (Homo sapiens, UniProt O00329)",
  "sequence (O00329 whole entry)": "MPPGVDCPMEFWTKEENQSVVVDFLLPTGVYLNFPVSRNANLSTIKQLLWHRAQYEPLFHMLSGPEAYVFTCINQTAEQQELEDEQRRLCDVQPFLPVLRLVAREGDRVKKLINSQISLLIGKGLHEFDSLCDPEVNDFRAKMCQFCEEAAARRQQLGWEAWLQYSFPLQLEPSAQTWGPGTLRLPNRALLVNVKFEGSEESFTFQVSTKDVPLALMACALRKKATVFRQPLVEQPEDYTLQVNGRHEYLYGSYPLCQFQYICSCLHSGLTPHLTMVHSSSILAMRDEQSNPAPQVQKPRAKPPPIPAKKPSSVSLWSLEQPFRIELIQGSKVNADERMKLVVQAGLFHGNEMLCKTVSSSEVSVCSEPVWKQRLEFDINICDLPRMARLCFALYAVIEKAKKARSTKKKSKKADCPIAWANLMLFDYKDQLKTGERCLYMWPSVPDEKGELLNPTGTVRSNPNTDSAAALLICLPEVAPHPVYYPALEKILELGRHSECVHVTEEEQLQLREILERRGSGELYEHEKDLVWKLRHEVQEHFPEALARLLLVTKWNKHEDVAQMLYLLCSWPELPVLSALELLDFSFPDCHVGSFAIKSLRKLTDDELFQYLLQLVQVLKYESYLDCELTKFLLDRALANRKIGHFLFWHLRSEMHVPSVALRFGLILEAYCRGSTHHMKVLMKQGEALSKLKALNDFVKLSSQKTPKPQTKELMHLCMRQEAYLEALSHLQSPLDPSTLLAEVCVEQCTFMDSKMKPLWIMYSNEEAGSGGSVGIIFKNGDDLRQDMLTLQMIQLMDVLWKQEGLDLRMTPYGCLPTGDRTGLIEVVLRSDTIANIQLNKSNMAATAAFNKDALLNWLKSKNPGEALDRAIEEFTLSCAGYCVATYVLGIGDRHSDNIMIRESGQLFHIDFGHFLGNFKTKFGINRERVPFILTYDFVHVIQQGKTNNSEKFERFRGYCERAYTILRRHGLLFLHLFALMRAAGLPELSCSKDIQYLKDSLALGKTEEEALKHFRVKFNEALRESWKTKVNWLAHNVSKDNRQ",
  "sequence (Q63787 whole entry partner)": "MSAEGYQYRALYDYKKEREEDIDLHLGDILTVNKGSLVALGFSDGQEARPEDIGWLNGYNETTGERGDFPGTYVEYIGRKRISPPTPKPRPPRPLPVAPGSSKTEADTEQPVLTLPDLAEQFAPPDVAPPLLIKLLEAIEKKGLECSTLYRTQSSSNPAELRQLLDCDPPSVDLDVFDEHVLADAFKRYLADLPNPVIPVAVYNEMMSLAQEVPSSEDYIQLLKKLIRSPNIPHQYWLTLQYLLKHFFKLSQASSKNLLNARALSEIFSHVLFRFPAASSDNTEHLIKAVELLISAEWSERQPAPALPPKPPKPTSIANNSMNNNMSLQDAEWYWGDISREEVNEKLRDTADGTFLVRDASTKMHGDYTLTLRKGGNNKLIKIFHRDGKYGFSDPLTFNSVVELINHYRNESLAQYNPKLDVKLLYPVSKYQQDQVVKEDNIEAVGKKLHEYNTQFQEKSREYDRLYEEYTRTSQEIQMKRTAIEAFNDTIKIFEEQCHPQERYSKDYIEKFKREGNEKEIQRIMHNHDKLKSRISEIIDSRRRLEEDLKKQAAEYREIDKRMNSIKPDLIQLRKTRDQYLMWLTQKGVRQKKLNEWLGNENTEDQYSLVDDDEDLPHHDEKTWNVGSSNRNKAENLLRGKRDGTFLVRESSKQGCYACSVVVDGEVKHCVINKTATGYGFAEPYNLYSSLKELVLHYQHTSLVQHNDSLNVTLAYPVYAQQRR",
  "test": "PI3K delta inhibition in Rat1-myr-HA-p110 delta cells (Akt Ser473 phosphorylation, AlphaScreen SureFire)",
  "assay_type": "cell-based",
  "design": "myristylation signal (myr) (N); HA tag (N); expressed in transfected cells; host or cells: Rat1 cells, stably transfected",
  "details": "read-out: Cell PI3Kδ/ IC50",
  "description": "Untreated cells were used as low controls, cells stimulated in absence of compounds were used as high controls. […] Cell lysates were either used immediately of stored frozen (in sealed plates) at −20° C. until use. […] Addition of AlphaScreen® SureFire® reagents was done according to the manufacturer's protocol. First, 5 ul of reaction buffer plus activation buffer mix containing AlphaScreen® acceptor beads was added, the plate was sealed, and incubated on a plate shaker for 2 hours at room temperature. […] The difference between high and low controls was taken as 100% and compound effects were expressed as percent inhibition. IC50 values were determined from the dose response curves by graphical extrapolation.",
  "data": [
    {"smiles": "COc1ncc(N2CCc3ncnc(O[C@H]4CCN(C(=O)c5cn(C)cn5)C4)c3C2)cc1C", "note": "[Example 20, {(S)-3-[6-(6-Methoxy-5-methyl-pyridin-3-yl)-5,6,7,8-tetrahydro-pyrido[4,3-d]pyrimidin-4-yloxy]-pyrrolidin-1-yl}-(1-methyl-1H-imidazol-4-yl)-methanone]", "values": [
      {"measurement": "IC50", "result": 254, "unit": "nM"}
    ]}
  ]
}
